Data on five compounds can be found in patent US5591714A, “Derivatives of A82846” (priority 1994, dated 1997).

≈ marks a conversion by molar mass, not a printed value.

One assay has as its system Escherichia coli EC14. Nature of the assay: MIC, standard agar-dilution assay. In kind it is cell-based. As to the method:
(§1) The formula I compounds have in vitro and in vivo activity against Gram-positive pathogenic bacteria. The MIC's were determined using a standard agar-dilution assays.

A further assay deals with Escherichia coli N10. Nature of the assay: MIC, standard agar-dilution assay. It is filed as cell-based. As to the method:
as §1

In a further assay the test system is Escherichia coli TEM. Nature of the assay: MIC, standard agar-dilution assay. In kind it is cell-based. As to the method: as §1
Assay [1] deals with Haemophilus influenzae 76. Nature of the assay: MIC, standard agar-dilution assay. In kind it is cell-based. As to the method:
as §1

Assay [2] relates to Haemophilus influenzae C.L. Briefly: MIC, standard agar-dilution assay. It is filed as cell-based. The method, then: as §1
Assay [3] concerns Klebsiella pneumoniae KAE. Nature of the assay: MIC, standard agar-dilution assay. In kind it is cell-based. The method, then: as §1
Assay [4] has as its system Klebsiella pneumoniae X26. Briefly: MIC, standard agar-dilution assay. It is filed as cell-based. The method, then:
as §1

For assay [5], the system named is Klebsiella pneumoniae X68. Briefly: MIC, standard agar-dilution assay. It is filed as cell-based. As to the method:
as §1

Assay [6] deals with Staphylococcus aureus NRRL X1.1. Nature of the assay: MIC, standard agar-dilution assay. It is filed as cell-based. The method, then:
as §1

The subject of assay [7] is Staphylococcus aureus V41. Briefly: MIC, standard agar-dilution assay. It is filed as cell-based. As to the method:
as §1

In assay [8] the test system is Staphylococcus aureus X400. Briefly: MIC, standard agar-dilution assay. It is filed as cell-based. The method, then: as §1
The subject of assay [9] is Staphylococcus epidermidis 222. Nature of the assay: MIC, standard agar-dilution assay. It is filed as cell-based. As to the method:
as §1

The subject of assay [10] is Staphylococcus epidermidis EPI270. Nature of the assay: MIC, standard agar-dilution assay. In kind it is cell-based. As to the method: as §1
Assay [11] has as its system Streptococcus pyogenes C203. Briefly: MIC, standard agar-dilution assay. In kind it is cell-based. The method, then: as §1
The test system of assay [12] is Staphylococcus aureus S13E. In kind it is cell-based. As to the method:
as §1

The test system of assay [13] is Streptococcus pneumoniae Park 1. It is filed as cell-based. As to the method: as §1
In a further assay the test system is Enterococcus faecium X66. Nature of the assay: MIC, standard agar-dilution assay. In kind it is cell-based. The method, then:
as §1
^b Formerly Streptococcus faecium X66

Assay [14] relates to Enterococcus faecalis 2041. Briefly: MIC, standard agar-dilution assay. In kind it is cell-based. The method, then:
as §1
^c Formerly Streptococcus faecalis 2041

Another assay concerns Staphylococcus aureus. Briefly: In vivo activity, experimentally infected mice (ED50). The settings on record: Staphylococcus aureus infection; doses administered subcutaneously to mice 1 and 4 hours postinfection.
The test system of the next assay is Streptococcus pyogenes. Described as above. The settings on record: Streptococcus pyogenes infection; doses administered subcutaneously to mice 1 and 4 hours postinfection.
The subject of the next assay is Streptococcus pneumoniae. Described as above. The following applies: Streptococcus pneumoniae infection; doses administered subcutaneously to mice 1 and 4 hours postinfection.

Regarding `CCCCCCC(=O)N[C@@]1(C)C[C@H](O[C@H]2[C@H](Oc3c4cc5cc3Oc3ccc(cc3Cl)[C@@H](O)[C@@H](NC(=O)[C@@H](CC(C)C)NC)C(=O)N[C@@H](CC(N)=O)C(=O)N[C@H]5C(=O)N[C@H]3C(=O)N[C@H](C(=O)N[C@H](C(=O)O)c5cc(O)cc(O)c5-c5cc3ccc5O)[C@H](O[C@H]3C[C@](C)(N)[C@@H](O)[C@H](C)O3)c3ccc(cc3)O4)O[C@H](CO)[C@@H](O)[C@@H]2O)O[C@@H](C)[C@@H]1O` [Compound 27], the MIC (in the assay with Escherichia coli EC14; against Escherichia coli N10; against Escherichia coli TEM; in assay [1]; in [2]; in assay [3]) was more than 128 µg/mL in each case. For the same compound, the MIC in [4] is more than 128 µg/mL; in assay [5], more than 128 µg/mL; in assay [6], 1 µg/mL (≈ 0.599 µM); in assay [7], 1 µg/mL (≈ 0.599 µM); in assay [8] it was 1 µg/mL (≈ 0.599 µM); in [9], 2 µg/mL (≈ 1.2 µM). For the same compound, the MIC in assay [10] is 2 µg/mL (≈ 1.2 µM); in [11] it was “.5 µg/mL”; in [12] it was 2 µg/mL (≈ 1.2 µM); in [13], “.25 µg/mL”; against Enterococcus faecium X66, 2 µg/mL (≈ 1.2 µM); in [14], 2 µg/mL (≈ 1.2 µM). Besides, the values for the ED50 in the assay with Staphylococcus aureus, in the assay on Streptococcus pyogenes and in the assay with Streptococcus pneumoniae were more than 1.0 mg/kg/2, 0.5 mg/kg/2 and 0.71 mg/kg/2, respectively.
For the compound `CCCCCN[C@@]1(C)C[C@H](O[C@H]2[C@H](Oc3c4cc5cc3Oc3ccc(cc3Cl)[C@@H](O[C@H]3C[C@](C)(N)[C@@H](O)[C@H](C)O3)[C@@H]3NC(=O)[C@H](NC(=O)[C@@H]5NC(=O)[C@H](CC(N)=O)NC(=O)[C@H](NC(=O)[C@@H](CC(C)C)NC)[C@H](O)c5ccc(c(Cl)c5)O4)c4ccc(O)c(c4)-c4c(O)cc(O)cc4[C@@H](C(=O)O)NC3=O)O[C@H](CO)[C@@H](O)[C@@H]2O)O[C@@H](C)[C@@H]1O` [Compound 34], the MIC (against Escherichia coli EC14; against Escherichia coli N10; against Escherichia coli TEM; in assay [1]; in [2]; in assay [3]) was more than 128 µg/mL in each case. For the same compound, the MIC in assay [4] is more than 128 µg/mL; in assay [5], more than 128 µg/mL; in assay [6], “.5 µg/mL”; in [7], “.5 µg/mL”; in assay [8] it was 1 µg/mL (≈ 0.601 µM); in assay [9] it was “.5 µg/mL”. Besides, the MIC is 2 µg/mL (≈ 1.2 µM) in assay [10]; “.5 µg/mL” in assay [11]; “.5 µg/mL” in assay [12]; “.5 µg/mL” in assay [13]; “.5 µg/mL” with Enterococcus faecium X66; 1 µg/mL (≈ 0.601 µM) in assay [14]. For the same compound, the ED50 with Staphylococcus aureus was found to be 0.77 mg/kg/2; in the assay with Streptococcus pyogenes, 0.44 mg/kg/2; with Streptococcus pneumoniae it was 0.44 mg/kg/2.
For `CNC(CC(C)C)C(=O)NC1C(=O)NC(CC(N)=O)C(=O)NC2C(=O)NC3C(=O)NC(C(=O)NC(C(=O)O)c4cc(O)cc(O)c4-c4cc3ccc4O)C(OC3CC(C)(N)C(O)C(C)O3)c3ccc(c(Cl)c3)Oc3cc2cc(c3OC2OC(CO)C(O)C(O)C2OC2CC(C)(NCc3ccccc3)C(O)C(C)O2)Oc2ccc(cc2Cl)C1O` (stereo not drawn) [Compound 51], the MIC (against Escherichia coli EC14; against Escherichia coli N10; with Escherichia coli TEM; in [1]; in [2]; in assay [3]) was more than 128 µg/mL each time. Further, the MIC in assay [4] is more than 128 µg/mL; in assay [5], more than 128 µg/mL; in assay [6], “.25 µg/mL”; in assay [7] it was “.5 µg/mL”; in assay [8], “.5 µg/mL”; in assay [9], “.5 µg/mL”. Besides, the MIC in [10] was 1 µg/mL (≈ 0.594 µM); in assay [11], “.25 µg/mL”; in assay [12], “.25 µg/mL”; in assay [13] it was “.125 µg/mL”; in the assay on Enterococcus faecium X66 it was “.25 µg/mL”; in [14], “.5 µg/mL”. Also, the ED50 is recorded as 0.34 mg/kg/2 in the assay on Staphylococcus aureus, 0.16 mg/kg/2 in the assay with Streptococcus pyogenes and 0.35 mg/kg/2 with Streptococcus pneumoniae.
On to `CNC(CC(C)C)C(=O)NC1C(=O)NC(CC(N)=O)C(=O)NC2C(=O)NC3C(=O)NC(C(=O)NC(C(=O)O)c4cc(O)cc(O)c4-c4cc3ccc4O)C(OC3CC(C)(N)C(O)C(C)O3)c3ccc(c(Cl)c3)Oc3cc2cc(c3OC2OC(CO)C(O)C(O)C2OC2CC(C)(NCc3ccccc3Cl)C(O)C(C)O2)Oc2ccc(cc2Cl)C1O` (stereo not drawn) [Compound 62], for which the MIC (with Escherichia coli EC14; in the assay on Escherichia coli N10; in the assay with Escherichia coli TEM; in assay [1]; in [2]; in [3]) was more than 128 µg/mL in each case. The MIC in assay [4] is more than 128 µg/mL; in assay [5], more than 128 µg/mL; in assay [6] it was “.5 µg/mL”; in [7], “.5 µg/mL”; in [8], 1 µg/mL (≈ 0.582 µM); in [9] it was “.5 µg/mL”. The MIC in [10] was 1 µg/mL (≈ 0.582 µM); in [11], “.125 µg/mL”; in [12] it was 1 µg/mL (≈ 0.582 µM); in [13] it was “.125 µg/mL”; with Enterococcus faecium X66 it was “.25 µg/mL”; in [14], “.5 µg/mL”. For the same compound, the results for the ED50 in the assay on Staphylococcus aureus, with Streptococcus pyogenes and in the assay with Streptococcus pneumoniae were 0.77 mg/kg/2, 0.20 mg/kg/2 and 0.17 mg/kg/2, respectively.
For `CNC(CC(C)C)C(=O)NC1C(=O)NC(CC(N)=O)C(=O)NC2C(=O)NC3C(=O)NC(C(=O)NC(C(=O)O)c4cc(O)cc(O)c4-c4cc3ccc4O)C(OC3CC(C)(N)C(O)C(C)O3)c3ccc(c(Cl)c3)Oc3cc2cc(c3OC2OC(CO)C(O)C(O)C2OC2CC(C)(NCc3cccc(Cl)c3)C(O)C(C)O2)Oc2ccc(cc2Cl)C1O` (stereo not drawn) [Compound 64], the MIC (in the assay on Escherichia coli EC14; against Escherichia coli N10; in the assay on Escherichia coli TEM; in [1]; in assay [2]; in [3]) was more than 128 µg/mL each time. The MIC in assay [4] was more than 128 µg/mL; in assay [5], more than 128 µg/mL; in [6] it was “.25 µg/mL”; in assay [7] it was “.25 µg/mL”; in assay [8], “.5 µg/mL”; in [9], “.5 µg/mL”. For the same compound, the MIC result in assay [10] was “.25 µg/mL”; in assay [11], “.06 µg/mL”; in assay [12], “.5 µg/mL”; in assay [13], “.25 µg/mL”; against Enterococcus faecium X66, “.25 µg/mL”; in [14] it was “.25 µg/mL”. The ED50 stood at 0.55 mg/kg/2 in the assay with Staphylococcus aureus, 0.94 mg/kg/2 in the assay on Streptococcus pyogenes and 0.10 mg/kg/2 in the assay on Streptococcus pneumoniae.
